The values below come from US20140213641A1, “POLYMERIC NANOPARTICLES FOR DRUG DELIVERY” (INSTITUT QUIMIC DE SARRIA, priority 2011, published 2014).

Like-named read-outs stand apart in the source and are kept apart here.

Data set [1] deals with Normal human neural progenitors (NHNP). The following applies: 72 h, 50 μM. As for the experimental part:
(§1) An ATP-lite assay was carried out over 48 to 72 hours in order to determine cytotoxicity of paclitaxel-loaded nanoparticles comprising a surface-modifying agent compared with that of paclitaxel and empty nanoparticles on healthy brain cell lines and determine IC50 values.
(§2) The formulations tested were as follows: vehicle, empty nanoparticles, decorated paclitaxel-loaded nanoparticles (3.33% paclitaxel by weight; decoration: SEQ ID #5) paclitaxel and etoposide (etoposide is described as having mild toxicity in treatment of brain cancer).
(§3) Three cell lines were tested. Normal human astrocytes (NHA; Lonza) are primary-derived cultures of adherent cells with limited number of divisions. Normal human […] (NHNP; primary cell line; Lonza) are neurosphere growing cells with high number of division that differentiate in adherent […] cells and neurons under specific conditions (laminin coated plates, induction with differentiation factors). Finally, immortalized human neural progenitors (RenCells; Millipore) are fetal brain cells transformed with c-myc oncogene.
(§4) Cells were incubated with treatment for 24 hours (astrocytes) and 72 hours (progenitor cell lines)

Data set [2] concerns Immortalized human neural progenitors (ReNcells). The following applies: 72 h, 50 μM. As for the experimental part: as §1, §2, §3, §4
Another data set in a line: in vitro. The following applies: human. As for the experimental part:
as §1, §2, §3, §4

For data set [3], the system named is U87-MG. The following applies: cells treated for few days, read-out: Paclitaxel metabolic assay (historical data) IC50; cited from earlier work.
In another data set the test system is CGL1. The following applies: cells treated for few days, read-out: Paclitaxel metabolic assay (historical data) IC50; cited from earlier work.
Data set [4] has as its system U87-MG. The following applies: read-out: literature IC50 values for paclitaxel alone; cited from earlier work.
The test system of a further data set is CGL-1 cell line. Briefly: Clonogenic assay (soft agar colony formation). It is filed as cell-based. The following applies: 336 h, read-out: IC50 (concentration that inhibits 50% of clones); CGL1, experiment 3, serial dilutions 1:5, highest concentration 1000 nM, 14 days colony formation. As for the experimental part:
(§5) A clonogenic assay was carried out to observe the toxicity of decorated paclitaxel-loaded nanoparticles compared with that of paclitaxel and empty nanoparticles on glioma cell lines and determine IC50 values in a long term effect (2 to 3 weeks growth). Nanoparticles with or without a surface-modifying agent (SEQ ID#5) were formed according to the method of example 2, with or without inclusion of paclitaxel.
(§6) Three cells lines were used. The CGL-1 cell line (Oncodesign, Dijon, France) was isolated from the TG-1 tumour subcutaneously (SC) implanted in Nude rat. 14 days were allowed for colony formation. The human U-87 MG cell line (American Type Culture Collection) was initiated from a […] glioblastoma from a person. 21 days were allowed for colony formation. Finally, the LN-229 cell line (American Type Culture Collection) was established in 1979 from cells taken from a patient with right frontal parieto-occipital glioblastoma. 14-21 days were allowed for colony formation.
(§7) The formulations tested were as follows: nanoparticles (stock solution NaCl 0.9%); paclitaxel-loaded nanoparticles (3.33% paclitaxel by weight; stock solution NaCl 0.9%); and paclitaxel (stock solution DMSO 100%). All test substances diluted at 100 μM in their respective vehicle to obtain stock solutions. Five concentrations (1:5 or 1:3 dilution steps) were used in triplicate. Formulations were obtained by diluting stock solutions at 100 μM in their respective vehicle to obtain a series of five concentrations in 1:5 or 1:3 dilution steps. Each solution was then further diluted at 1:20 with RPMI 1640 before final dilution at 1:10 into soft agar.
(§8) Repetitions were carried out for GCL-1 at 2 nM, 8 nM, 40 nM, 200 nM and 1000 nM and for LN-229 at 1.2 nM, 3.7 nM, 11 nM, and 33 nM. At least 2 independent experiments were carried out with top concentrations and dilution steps changed when needed. Cells were incubated for 14 to 21 days with the different treatments.
(§9) Results are given in Table 4 and indicate the % survival from the initial 300 clones. Vehicle results not included (100% survival in all cases). The results are shown graphically in FIGS. 4, 5 and 6. Clonogenic tests are based on clones of cells and not cells alone.

Another data set deals with LN-229 cell line. The data set can be described thus: Clonogenic assay (soft agar colony formation). The format is cell-based. Particulars: Homo sapiens. As for the experimental part: as §5, §6, §7, §8, §9
The test system of the next data set is U-87 MG cell line. Briefly: Clonogenic assay (soft agar colony formation). The format is cell-based. Particulars: Homo sapiens. As for the experimental part: as §5, §6, §7, §8, §9

On to `COc1cc([C@@H]2c3cc4c(cc3[C@@H](O[C@@H]3O[C@@H]5CO[C@@H](C)O[C@H]5[C@H](O)[C@H]3O)[C@H]3COC(=O)[C@H]23)OCO4)cc(OC)c1O` [Etoposide, etoposide], for which the “% survival” value was 21% in data set [1] and 3% in data set [2]. This compound also showed an IC50 at 24 h in “in vitro” of around 50000 nM.

For `CC(=O)O[C@H]1C(=O)[C@@]2(C)[C@H]([C@H](OC(=O)c3ccccc3)[C@]3(O)C[C@H](OC(=O)[C@H](O)[C@@H](NC(=O)c4ccccc4)c4ccccc4)C(C)=C1C3(C)C)[C@]1(OC(C)=O)CO[C@@H]1C[C@@H]2O` [Paclitaxel, paclitaxel], the IC50 with U87-MG [3] was around 10 nM; with CGL1, above 100 nM; in the data set with U87-MG [4], 10 to 20 nM; in the data set with CGL-1 cell line, 792 nM; in the data set with LN-229 cell line (LN-229, read-out: IC50 (concentration that inhibits 50% of clones), LN229, experiment 4, serial dilutions 1:3, highest concentration 100 nM, 14-21 days colony formation), 7.3 nM; with LN-229 cell line (LN-229, read-out: IC50 (concentration that inhibits 50% of clones), LN229, experiment 5, serial dilutions 1:3, highest concentration 100 nM, 14-21 days colony formation) it was 21 nM. For the same compound, the IC50 in the data set with U-87 MG cell line (504 h, read-out: IC50 (concentration that inhibits 50% of clones), U87-MG, experiment 2, serial dilutions 1:5, highest concentration 500 nM, 21 days colony formation) is 2.6 nM; with U-87 MG cell line (504 h, read-out: IC50 (concentration that inhibits 50% of clones), U87-MG, experiment 3, serial dilutions 1:5, highest concentration 500 nM, 21 days colony formation) it was 7.5 nM; with U-87 MG cell line (U87-MG cells, test repeated, read-out: IC50, repeated test), 4 to 20 nM.
